In ChEMBL document CHEMBL5375986, “Discovery of Lead 2-Thiazolylhydrazones with Broad-Spectrum and Potent Antifungal Activity” (J Med Chem, 2023):
≈ marks a conversion by molar mass, not a printed value.

Experiments:
[1] = test system: Pichia kudriavzevii; assay: Antifungal activity against Candida krusei ATCC 20298 assessed as inhibition of fungal growth incubated for 24 to 48 hrs by CLSI protocol based broth microdilution method; format: functional; details: time 24-48 hrs
[2] = Antifungal activity against Cryptococcus gattii ATCC 24065 assessed as inhibition of fungal growth incubated for 24 to 48 hrs by CLSI protocol based broth microdilution method; format: functional, Cryptococcus gattii VGI; details: time 24-48 hrs
[3] = Apparent permeability across basolateral to apical side in human Caco-2 cells measured after 30 to 180 mins by HPLC-MS analysis; format: ADME, cell-based; details: time 30-180 min
[4] = test system: Cryptococcus neoformans; assay: Antifungal activity against Cryptococcus neoformans ATCC 24067 assessed as inhibition of fungal growth incubated for 24 to 48 hrs by CLSI based broth microdilution method; format: functional; details: time 24-48 hrs
[5] = Apparent permeability across apical to basolateral side in human Caco-2 cells measured after 30 to 180 mins by HPLC-MS analysis; format: ADME, cell-based; details: time 30-180 min
[6] = test system: Nakaseomyces glabratus; assay: Antifungal activity against Candida glabrata ATCC 2001 assessed as inhibition of fungal growth incubated for 24 to 48 hrs by CLSI protocol based broth microdilution method; format: functional; details: time 24-48 hrs
[7] = test system: Candida tropicalis; assay: Antifungal activity against Candida tropicalis ATCC 750 assessed as inhibition of fungal growth incubated for 24 to 48 hrs by CLSI protocol based broth microdilution method; format: functional; details: time 24-48 hrs
[8] = test system: Cryptococcus neoformans; assay: Antifungal activity against Cryptococcus neoformans H99 infected in Tenebrio molitor larvae assessed as survival rate of larvae at 80 microg/ml measured after 24 hrs; format: functional
[9] = test system: Candida parapsilosis; assay: Antifungal activity against Candida parapsilosis ATCC 22019 assessed as inhibition of fungal growth incubated for 24 to 48 hrs by CLSI protocol based broth microdilution method; format: functional; details: Lodderomyces parapsilosis, time 24-48 hrs
[10] = test system: Caco-2; assay: Cytotoxicity against human Caco-2 cells assessed as reduction in cell viability at 10 to 40 microg/ml measured upto 12 hrs by MTT assay; format: functional; details: dose 10-40 µg/ml, at 10 to 40 µg/mL
[11] = Efflux ratio of apparent permeability across basolateral to apical over apical to basolateral side in human Caco-2 cells measured after 30 to 180 mins by HPLC-MS analysis; format: ADME, cell-based; details: time 30-180 min
[12] = test system: Candida albicans; assay: Antifungal activity against Candida albicans SC5314 assessed as inhibition of fungal growth incubated for 24 to 48 hrs by CLSI protocol based broth microdilution method; format: functional; details: time 24-48 hrs
[13] = test system: [Candida] auris; assay: Antifungal activity against Candida auris COLO 01 assessed as inhibition of fungal growth incubated for 24 to 48 hrs by CLSI protocol based broth microdilution method; format: functional; details: Candidozyma auris, time 24-48 hrs
[14] = Cytotoxicity against human PBMC cells assessed as inhibition of cell growth incubated for 24 to 48 hrs by MTT assay; format: toxicity, cell-based

## CCOC(=O)Cc1csc(N/N=C(\C)CCC(=O)O)n1
[1]
  MIC: 0.8 µM (≈ 0.239 µg/mL)
[2]
  MIC: 3.2 µM (≈ 0.958 µg/mL)
[3]
  Papp B→A: 5.26 ×10⁻⁶ cm/s
[4]
  MIC: 3.2 µM (≈ 0.958 µg/mL)
[5]
  Papp A→B: 1.47 ×10⁻⁶ cm/s
[6]
  MIC: 52.2 µM (≈ 15.6 µg/mL)
[7]
  MIC: 0.8 µM (≈ 0.239 µg/mL)
[8]
  survival at 80 µg/mL: 63%
[9]
  MIC: 1.6 µM (≈ 0.479 µg/mL)
[10]
  Activity: >70%
[11]
  efflux ratio: 3.58
[12]
  MIC: 3.2 µM (≈ 0.958 µg/mL)
[13]
  MIC: 1.6 µM (≈ 0.479 µg/mL)
[14]
  IC50: > 500 µM
